Assay results as given in PMC9941179, “Preparation and activity evaluation of angiotensin-I converting enzyme inhibitory peptides from protein hydrolysate of mulberry leaf” (Frontiers in Nutrition, 2023).
Read-outs that look alike come from different tables or passages of the source. Where no end group is shown, it is not given here.

Experiments:
ACE [1] = target: T1, ACE (Homo sapiens, UniProt P12821); test: ACE inhibitory activity of synthetic peptides; type: biochemical
T1 construct: purchased Tong Ren Chemical Co., Ltd. (Institute of Tongren Chemistry, Japan) ACE Kit-WST
Method: The ACE inhibitory activity was determined by ACE Kit-WST (Institute of Tongren Chemistry, Japan). Taking ultra-pure water as blank control, the inhibitory activity of ACE was calculated.
Pinhibitoryrate%=ABlack1-ASample/ABlack1-ABlack2×100%
Each experimental procedure was performed three times, and data were expressed as the mean ± standard deviation. Statistical analyses were conducted by one-way analysis of variance using IBM SPSS 20 (SPSS Inc., Chicago, USA). Duncan’s test was applied to determine the significance of multiple groups. The P-value <0.05 was considered statistically significant.
All the peptides were commercially synthesized and their ACE activity was determined (Figure 8).

ACE [2] = conditions: 0.05 mg/L; peptide from broccoli; ref Zhang et al. ([21]); cited from earlier work
Description: It is of high research value to develop efficient antihypertensive products around botanical angiotensin- I converting enzyme (ACE) inhibitory peptides ([11]). Hypertension is a standard chronic disease and the most critical risk factor for cardio-cerebrovascular disease ([12]). The pathogenesis of hypertension is associated with the renin tensin system (Renin-Angiotensin System, RAS) ([13], [14]). RAS contains two key enzymes: hypertension proteinase (Renin) and ACE ([15]). Therefore, inhibiting the enzyme activity of Renin and ACE is one of the treatments for hypertension ([16], [17]). ACE b ...

[3] = synthetic peptide, IC50 used as inhibitor concentration in kinetics, read-out: IC50 (peptide concentration in Table 7) (converted)

T1 sequence (P12821 30-1306, species assumed): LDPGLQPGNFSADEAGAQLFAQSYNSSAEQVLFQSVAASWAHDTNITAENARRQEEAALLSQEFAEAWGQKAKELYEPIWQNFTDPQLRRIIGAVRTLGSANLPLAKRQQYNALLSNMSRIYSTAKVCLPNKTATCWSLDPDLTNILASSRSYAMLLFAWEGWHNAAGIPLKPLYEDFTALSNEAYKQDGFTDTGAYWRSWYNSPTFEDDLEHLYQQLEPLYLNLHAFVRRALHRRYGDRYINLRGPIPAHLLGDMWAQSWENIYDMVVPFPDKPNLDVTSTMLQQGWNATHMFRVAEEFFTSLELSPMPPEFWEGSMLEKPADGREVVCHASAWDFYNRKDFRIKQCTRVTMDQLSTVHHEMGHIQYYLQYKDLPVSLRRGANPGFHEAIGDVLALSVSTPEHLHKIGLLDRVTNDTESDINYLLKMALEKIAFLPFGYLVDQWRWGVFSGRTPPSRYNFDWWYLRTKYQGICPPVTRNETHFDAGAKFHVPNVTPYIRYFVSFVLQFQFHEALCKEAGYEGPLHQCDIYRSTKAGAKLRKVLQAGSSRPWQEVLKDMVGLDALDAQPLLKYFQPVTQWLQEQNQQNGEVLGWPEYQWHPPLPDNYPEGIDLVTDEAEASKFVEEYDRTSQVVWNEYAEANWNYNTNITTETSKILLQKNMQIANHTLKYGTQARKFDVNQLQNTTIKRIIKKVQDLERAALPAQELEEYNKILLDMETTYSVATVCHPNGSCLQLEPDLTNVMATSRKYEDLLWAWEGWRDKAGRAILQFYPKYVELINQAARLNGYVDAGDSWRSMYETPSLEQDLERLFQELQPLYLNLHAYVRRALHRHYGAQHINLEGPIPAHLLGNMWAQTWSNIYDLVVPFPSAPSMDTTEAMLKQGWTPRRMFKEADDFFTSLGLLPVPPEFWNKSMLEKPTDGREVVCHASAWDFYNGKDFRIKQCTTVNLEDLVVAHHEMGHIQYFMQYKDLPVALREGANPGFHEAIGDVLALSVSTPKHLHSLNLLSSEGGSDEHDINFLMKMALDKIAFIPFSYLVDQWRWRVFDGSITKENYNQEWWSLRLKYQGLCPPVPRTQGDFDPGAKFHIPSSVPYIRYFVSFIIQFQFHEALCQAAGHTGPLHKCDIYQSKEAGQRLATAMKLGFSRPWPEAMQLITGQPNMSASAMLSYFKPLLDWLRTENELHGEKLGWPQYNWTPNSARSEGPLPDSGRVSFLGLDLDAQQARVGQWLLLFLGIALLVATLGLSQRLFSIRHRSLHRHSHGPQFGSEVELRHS

| IC50 (ACE [1]; [3]) [µM] | Substance | also measured |
| --- | --- | --- |
| 3340 | ERFNVE [ERFNVE] |  |
| 931 | FDDKLD [FDDKLD] |  |
|  | Lys - Ser - Val - Leu - Leu - Lys - Phe [peptide from broccoli digest, literature] | ACE inhibition rate (ACE [2]): 42.86% |
|  | MELVLK [MELVLK] | IC50 (ACE [1]; chemosynthetic peptide, purity greater than 95%, read-out: IC50 (converted)): 2600 µM |
| 1400 | TELVLK [TELVLK] |  |
